Results as given in patent US20260297164A1, “ANTI-FIBROTIC PEPTIDES AND USES THEREOF” (Deackt, Inc., priority 2021, published 2026).

B1: FasL: Soluble recombinant human FasL (protein, UniProt P48023 103-281, looked up)
extracellular domain: QLFHLQKELAELRESTSQMHTASSLEKQIGHPSPPPEKKELRKVAHLTGKSNSRSMPLEWEDTYGIVLLSGVKYKKGGLVINETGLYFVYSKVYFRGQSCNNLPLSHKVYMRNSKYPQDLVMMEGKMMSYCTTGQMWARSSYLGAVFNLTSADHLYVNVSELSLVNFEESQTFFGLYKL
modifications: extracellular domain soluble recombinant

How the values were obtained:
[1] = system: Col1a1 expression in CD148-deficient (Ptprj−/−) lung fibroblasts; experiment: Col1a1 qPCR in CD148-deficient lung fibroblasts with NF-κB inhibitor; format: cell-based, mouse; details: CD148-deficient cells, TGF-β1 10 ng/ml; Bay 11-7082 10 μM
Protocol: FIG. 4. CD148 deficiency enhances PI3K/Akt/mTOR signaling which results in enhanced NF-κB activation in lung fibroblasts. (A) WT and Ptprj−/− cells were stimulated with TGF-β1 (10 ng/ml) for 24 h. Cells were lysed and p-IKKα/β, p-IκB and IκB were measured by western blot (n=4). GAPDH was the standard. Bar graphs at right are the quantitation of corresponding proteins. (B) WT and Ptprj−/− cells were stimulated with TGF-β1 (10 ng/ml) for 24 h. Cells were subjected to cytosol and nuclear protein fractionation. The p65 (NF-κB subunit) nuclear translocation was measured by western blot (n=3). β-actin and PCNA were used as cytosolic and nuclear markers, respectively. Bar graphs at right are the quantitation of corresponding proteins. p65 cytosolic/nuclear ratio is shown (far right). Data are mean±s.e.m. *P<0.05, by Kurskal-Wallis non-parametric test (C-D) WT or Ptprj−/− cells were transfected with scr or shp62 (lentivirus). Cells were stimulated with TGF-β1 (10 ng/ml) in the presence or absence or wortmannin (wort, 50 nM) or rapamycin (rapa, 1 μM). At 24 h cells were harvested and subjected to qPCR for Col1a1 or Acta2 (n=5). […] Luciferase activity were measured as described in methods (n=4 or 7). […] (F) WT or Ptprj−/− cells were stimulated with TGF-β1 (10 ng/ml) in the presence or absence of the NF-κB inhibitor Bay 11-7082 (10 μM). mRNA levels of Col1a1 were measured by qPCR (n=5 for each condition). […]

[2] = system: α-SMA in CD148-deficient (Ptprj−/−) lung fibroblasts; experiment: α-SMA western blot in CD148-deficient lung fibroblasts with PI3K/mTOR inhibitors; format: cell-based, mouse; details: CD148-deficient cells, TGF-β1 10 ng/ml; wortmannin 50 nM or rapamycin 1 μM, 24 h
Protocol: FIG. 3. CD148 deficiency enhances PI3K/Akt/mTOR signaling which results in low autophagy, high p62 expression in lung fibroblasts. (A) Mouse lung fibroblasts were isolated from Ptprj^fl/fl Col1a2^Cre-ER(T)+/0 mice (Ptprj−/−) and Col1a2^Cre-ER(T)+/0 mice (WT) and then treated with 4-OHT (1 μM) for 24 h. After 4-OHT treatment, cells were exposed to TGF-β1 (10 ng/ml) for 24 h. After stimulation, cells were harvested, and the expression of p-p85 (Tyr458), p-Akt (Ser473), pmTOR (Ser2448), p-p70 S6 kinase (Thr389), p-S6 ribosomal protein (Ser235/236) and CD148 (n=4 for each condition) in lysates was determined by Western immunoblotting and corresponding densitometry (ImageJ software). Data were normalized to corresponding dephospho-forms or GAPDH. (B) WT and Ptprj−/− cells were stimulated with TGF-β1 (10 ng/ml) for 24 h. Then cells were lysed and LC3-I and -II and p62 were measured by western blot (n=4). […] Then, autophagy flux was measured by LC3-II accumulation in the absence or presence of lysosomal acidification inhibitor chloroquine (25 μM) at 2, 4 and 6 h (n=4). […] LC3 puncta positive cells were quantified using ImageJ (D). […]
Polyacrylamide gel electrophoresis and immunoblotting were performed according to standard methods. […] The signals were detected by ECL (Thermo Fisher Scientific, Waltham, MA). […]

[3] = system: IPF-derived lung fibroblasts; experiment: FasL-induced cell death (MTT cell viability); format: cell-based, human; details: FasL 100 and 200 ng/ml, 24 h
Protocol: FIG. 1. […] (A) CD148 protein expression levels were determined in lung homogenates from control (n=5) and IPF (n=5) patients. (Graphic) Densitometry (by ImageJ software). (B) Lung specimens from control (n=9) and IPF (n=10) patients were homogenized and subjected to total RNA isolation. Ptprj (CD148) mRNA levels were assessed using qPCR. (C) Single cell suspensions of control (n=6) and IPF (n=7) were enriched for fibroblasts. mRNA expression of CD148 in fibroblast-enriched cell populations were assessed using qPCR. (D) Representative fluorescence microscopy images of CD148 (Cy3, red), Vimentin (GFP, green) and DAPI (blue) in control (n=4) and IPF lung tissue (n=5). Scale bar=100 μm. […] CD148 fluorescence intensity was quantified by ImageJ. […] (E) CD148 protein levels were measured by western blot (n=3). (F) mRNA levels of fibronectin (Fn) and Collagen 1a1 (Col1a1) were measured using qPCR (n=5). […] After treatment, cell viability was determined using the MTT assay (n=5). […] Clusters labeled as fibroblast and myofibroblast were extracted from our previously published scRNA-seq data set and analysed using R-program. […] P values were calculated by Mann-Whitney unpaired test. (L) mRNA expression of CD148 in sorted AT1 and AT2 cells were assessed using qPCR. […] After treatment, cell viability was assessed with the MTT assay (n=4). […]
FIG. 6. […] (B) mRNA levels of Fn and Col1a1 were measured by qPCR (n=5). […]

Row | Molecule | increase of a-SMA in response to TGF-β1 [2] | other results
1 | Cc1ccc(S(=O)(=O)/C=C/C#N)cc1 [Bay 11-7082] |  | TGF-β1-dependent increase in Col1a1 expression [1]: inhibited
2 | CO[C@H]1C[C@@H]2CC[C@@H](C)[C@@](O)(O2)C(=O)C(=O)N2CCCC[C@H]2C(=O)O[C@H]([C@H](C)C[C@@H]2CC[C@@H](O)[C@H](OC)C2)CC(=O)[C@H](C)/C=C(\C)[C@@H](O)[C@@H](OC)C(=O)[C@H](C)C[C@H](C)/C=C/C=C/C=C/1C [rapamycin] | attenuated | 
3 | COC[C@H]1OC(=O)c2coc3c2[C@@]1(C)C1=C(C3=O)[C@@H]2CCC(=O)[C@@]2(C)C[C@H]1OC(C)=O [wortmannin] | attenuated | 
4 | B1 |  | cell death induced by Fas ligand [3]: resistant to cell death
